Test results as given in US7297704B2, “Cycloalkyfused indole, benzothiophene, benzofuran and idene derivatives” (Wyeth, priority 2005, dated 2007).
Where a name gives a salt, the structure may show the parent alone. Read-outs that look alike come from different tables or passages of the source.

Key:
Human 5-HT1A Receptor [1] = biological target: T1, Human 5-HT1A Receptor (Homo sapiens, UniProt P08908); test: 8-OH-DPAT binding, human 5-HT1A receptor cell line; details: stably transfected CHO cells, 8-OH-DPAT ligand 1.5 nM; read-out: h5-HT1A Affinity, Ki
T1 construct: expressed in transfected cells; host or cells: CHO cells
T1 sequence (P08908 1-422): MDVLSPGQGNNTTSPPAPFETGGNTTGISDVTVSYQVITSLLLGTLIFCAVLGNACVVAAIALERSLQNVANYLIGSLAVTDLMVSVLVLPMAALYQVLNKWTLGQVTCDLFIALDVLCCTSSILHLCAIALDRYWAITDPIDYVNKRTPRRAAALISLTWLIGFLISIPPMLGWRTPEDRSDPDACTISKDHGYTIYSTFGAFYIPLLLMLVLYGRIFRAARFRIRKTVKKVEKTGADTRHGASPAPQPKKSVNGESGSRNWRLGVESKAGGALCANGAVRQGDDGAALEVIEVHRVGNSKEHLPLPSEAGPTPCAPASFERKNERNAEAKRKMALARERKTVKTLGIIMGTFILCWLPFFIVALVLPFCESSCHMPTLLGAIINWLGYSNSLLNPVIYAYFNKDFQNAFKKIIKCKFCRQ
Summary of the method: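 Membranes from CHO cells stably expressing human 5-HT1A, incubated 30 min at room temperature in 50 mM Tris pH 7.5 with 1.5 nM radioligand (8-OH-DPAT). Non-specific binding defined with […]; filtration on PEI-soaked GF/B filters. Single-point inhibition at […], then Ki for actives.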

h-5-HT-T = h-5-HT-T (Homo sapiens, UniProt P31645); test: h-5-HT-T IC50 (Table 1, no method described)
serotonin transporter = biological target: T2, serotonin transporter (Rattus norvegicus, UniProt P31652); test: 3H-paroxetine binding to the serotonin transporter, rat frontal cortical membranes; details: values printed without parentheses, 3H-paroxetine 0.1 nM, read-out: rb-5-HH-T, Ki
T2 construct: frontal cortical membranes prepared from male S.D. rats; from tissue; host or cells: rat frontal cortex membranes (male Sprague-Dawley)
Summary of the method: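 Male Sprague-Dawley rat frontal cortical membranes incubated with 0.1 nM ³H-paroxetine for 60 min at 25 °C, test compound at one to eight concentrations; 10 μM fluoxetine defined specific binding. Filtration separated bound ligand, counted by scintillation. IC50 from nonlinear regression, converted to Ki by Cheng–Prusoff.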

Human 5-HT1A Receptor [2] = biological target: T1, Human 5-HT1A Receptor; test: cAMP RIA in human 5-HT1A receptor cell line; format: cell-based; details: CHO cells; for EC50: superscript a, read-out: c-AMP, (EC50)^a; for EC50 / Emax: forskolin stimulated cAMP; for Emax: superscript c, read-out: c-AMP, (Emax)^c; for IC50: superscript b, reversal of agonist activity, read-out: c-AMP, (IC50)^b
Summary of the method: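 Stably transfected CHO cells preincubated in Krebs with 500 uM IBMX, then given forskolin (1 uM final) and test compound (0.1 and 1 uM initial screen) for 10 min at 37° C; cAMP measured by RIA as % inhibition. Antagonist mode: 6 concentrations preincubated 20 min before agonist plus forskolin; IC50 for reversal.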

[3] = biological target: T3, cloned human 5-HT1A receptors (Homo sapiens, UniProt P08908); test: 35S-GTPγS binding assay; format: biochemical; details: for IC50: superscript b, reversal of 8-OH-DPAT effect; for Imax (maximum inhibitory effect): superscript d
T3 construct: expressed in transfected cells
T3 sequence (P08908 1-422): T1 sequence (P08908 1-422)
Description: The ^35S-GTPγS binding assay similar to that used by Lazareno and Birdsall (Br. J. Pharmacol., 1993, 109: 1120) was used to determine the test compound's ability to affect the binding of ^35S-GTPγS to membranes containing cloned human 5-HT1A receptors. Agonists produce an increase in binding whereas antagonists produce no increase but rather reverse the effects of the standard agonist 8-OH-DPAT. The test compound's maximum stimulatory effect is represented as the Emax, while its potency is defined by the EC50. The test compound's maximum inhibitory effect is represented as the Imax, while its potency is defined by the IC50. […] was used to determine maximum agonist or antagonist response.

Sequence of h-5-HT-T (P31645 whole entry): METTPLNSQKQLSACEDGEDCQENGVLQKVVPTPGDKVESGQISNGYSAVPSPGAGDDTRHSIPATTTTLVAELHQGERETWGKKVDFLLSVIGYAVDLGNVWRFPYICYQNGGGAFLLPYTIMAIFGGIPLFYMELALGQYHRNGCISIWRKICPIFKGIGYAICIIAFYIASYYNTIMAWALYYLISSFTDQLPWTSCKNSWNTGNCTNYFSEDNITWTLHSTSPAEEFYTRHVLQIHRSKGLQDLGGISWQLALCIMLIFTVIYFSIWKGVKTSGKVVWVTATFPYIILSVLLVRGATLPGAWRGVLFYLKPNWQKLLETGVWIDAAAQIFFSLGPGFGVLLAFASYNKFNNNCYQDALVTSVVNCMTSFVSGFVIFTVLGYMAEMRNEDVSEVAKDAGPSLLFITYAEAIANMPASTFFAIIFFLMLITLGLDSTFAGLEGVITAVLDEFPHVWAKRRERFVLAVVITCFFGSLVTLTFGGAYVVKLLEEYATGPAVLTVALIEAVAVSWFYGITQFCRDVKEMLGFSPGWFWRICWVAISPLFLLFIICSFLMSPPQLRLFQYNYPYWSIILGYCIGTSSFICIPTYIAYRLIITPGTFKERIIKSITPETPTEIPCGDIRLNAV
T2 sequence (P31652 whole entry): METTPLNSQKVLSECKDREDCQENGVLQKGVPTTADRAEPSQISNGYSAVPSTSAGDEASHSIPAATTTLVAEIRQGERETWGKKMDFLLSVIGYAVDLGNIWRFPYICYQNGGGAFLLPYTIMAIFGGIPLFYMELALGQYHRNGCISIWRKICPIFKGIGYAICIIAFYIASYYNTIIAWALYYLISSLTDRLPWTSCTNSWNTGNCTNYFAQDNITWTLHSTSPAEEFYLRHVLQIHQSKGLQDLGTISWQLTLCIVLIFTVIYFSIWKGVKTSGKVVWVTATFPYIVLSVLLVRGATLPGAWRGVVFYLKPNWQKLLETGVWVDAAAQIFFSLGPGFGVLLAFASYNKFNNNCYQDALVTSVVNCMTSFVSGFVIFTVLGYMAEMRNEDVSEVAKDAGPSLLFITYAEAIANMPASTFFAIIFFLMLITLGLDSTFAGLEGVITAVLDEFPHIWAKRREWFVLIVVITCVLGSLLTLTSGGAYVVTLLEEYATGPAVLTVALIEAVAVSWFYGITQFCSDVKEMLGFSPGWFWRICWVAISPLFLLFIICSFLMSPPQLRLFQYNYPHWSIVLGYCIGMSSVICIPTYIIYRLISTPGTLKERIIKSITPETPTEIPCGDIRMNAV

IC50 [3] [nM]	Imax (maximum inhibitory effect) [3] [%]	IC50 (Human 5-HT1A Receptor [2]) [nM]	Emax (Human 5-HT1A Receptor [2]; CHO) [%]	Compound	Ki (Human 5-HT1A Receptor [1]) [nM]	IC50 (h-5-HT-T) [nM]	Ki (serotonin transporter) [nM]	EC50 (Human 5-HT1A Receptor [2]) [nM]	Emax (Human 5-HT1A Receptor [2]) [%]	EC50 ([3]; superscript a, potency of stimulatory effect) [nM]	Emax ([3]; superscript c, maximum stimulatory effect) [%]
				CCC(C)N(C[C@H]1CCc2[nH]c3ccc(F)cc3c2C1)C[C@H]1COc2ccc3nc(C)ccc3c2O1 (stereo partly drawn) [Example 62, N-{[(3S)-6-Fluoro-2,3,4,9-tetrahydro-1H-carbazol-3-yl]methyl}-N-{[(2S)-8-methyl-2,3-dihydro[1,4]dioxino[2,3-f]quinolin-2-yl]methyl}butan-2-amine monohydrochloride monohydrate]	1960	730 ± 9.19					
				Cc1ccc2c3c(ccc2n1)OC[C@H](CN[C@@H]1CCc2c([nH]c4ccc(F)cc24)C1)O3 (single isomer, unassigned) [Example 47, dihydrochloride]	186	102 ± 7.07	12.8	300	59		
				Cc1ccc2c3c(ccc2n1)OC[C@H](CN(C[C@@H]1CCc2[nH]c4ccc(F)cc4c2C1)C1CCCC1)O3 [Example 59, N-{[(3R)-6-Fluoro-2,3,4,9-tetrahydro-1H-carbazol-3-yl]methyl}-N-{[(2S)-8-methyl-2,3-dihydro[1,4]dioxino[2,3-f]quinolin-2-yl]methyl}cyclopentanamine monohydrochloride monohydrate]	3120	115 ± 16.4	362	431	81		
				Cc1ccc2c3c(ccc2n1)OC[C@H](CN(C[C@@H]1CCc2[nH]c4ccc(F)cc4c2C1)C(C)C)O3 [Example 57, N-{[(3R)-6-Fluoro-2,3,4,9-tetrahydro-1H-carbazol-3-yl]methyl}-N-{[(2S)-8-methyl-2,3-dihydro[1,4]dioxino[2,3-f]quinolin-2-yl]methyl}propan-2-amine monohydrochloride monohydrate]	6140	1130 ± 109	1570				
		168		Cc1ccc2c3c(ccc2n1)OC[C@H](CN[C@H]1CCc2c([nH]c4ccc(F)cc24)C1)O3 (single isomer, unassigned) [Example 48, dihydrochloride]	7.4	31.9 ± 5.34	46.7 ± 2.07				
645	100		62	Cc1ccc2c3c(ccc2n1)OC[C@H](CNCC1CCc2c(sc4cc(F)ccc24)C1)O3 (single isomer, unassigned) [39 diastereomer 1]	7.09	2060	210				
				Cc1ccc2c3c(ccc2n1)OC[C@H](CN(C[C@@H]1CCc2[nH]c4ccc(F)cc4c2C1)C1CCCCC1)O3 [Example 60, N-{[(3R)-6-fluoro-2,3,4,9-tetrahydro-1H-carbazol-3-yl]methyl}-N-{[(2S)-8-methyl-2,3-dihydro[1,4]dioxino[2,3-f]quinolin-2-yl]methyl}cyclohexanamine monohydrochloride monohydrate]		995 ± 24.4	394				
				CCC(C)N(C[C@@H]1CCc2[nH]c3ccc(F)cc3c2C1)C[C@H]1COc2ccc3nc(C)ccc3c2O1 (stereo partly drawn) [Example 58, N-{[(3R)-6-Fluoro-2,3,4,9-tetrahydro-1H-carbazol-3-yl]methyl}-N-{[(2S)-8-methyl-2,3-dihydro[1,4]dioxino[2,3-f]quinolin-2-yl]methyl}butan-2-amine monohydrochloride monohydrate]	1190	113 ± 22.5	358		22		
				Cc1ccc2c3c(ccc2n1)OC[C@H](CN(CC1CCc2[nH]c4ccc(F)cc4c2C1)C1CCC1)O3 (stereo partly drawn) [Example 53, N-[(6-Fluoro-2,3,4,9-tetrahydro-1H-carbazol-3-yl)methyl]-N-{[(2S)-8-methyl-2,3-dihydro[1,4]dioxino[2,3-f]quinolin-2-yl]methyl}cyclobutanamine dihydrochloride dihydrate]	5740	39.1 ± 3.85	498	126	68		
				Cc1ccc2c3c(ccc2n1)OC[C@H](CN(C)C[C@@H]1CCc2c(c4cc(F)ccc4n2C)C1)O3 [Example 69, {[(3R)-6-Fluoro-9-methyl-2,3,4,9-tetrahydro-1H-carbazol-3-yl]methyl}methyl{[(2S)-8-methyl-2,3-dihydro[1,4]dioxino[2,3-f]quinolin-2-yl]methyl}amine monohydrochloride monohydrate]	1590	35.8 ± 0.71	220	548	63		
				CCCN(CC1CCc2[nH]c3ccc(F)cc3c2C1)C[C@H]1COc2ccc3nc(C)ccc3c2O1 (stereo partly drawn) [Example 51, N-[(6-Fluoro-2,3,4,9-tetrahydro-1H-carbazol-3-yl)methyl]-N-{[(2S)-8-methyl-2,3-dihydro[1,4]dioxino[2,3-f]quinolin-2-yl]methyl}propan-1-amine dihydrochloride dihydrate]	1290	22.3 ± 3.32	88	171	59		
				Cc1ccc2c3c(ccc2n1)OC[C@H](CN(C[C@H]1CCc2[nH]c4ccc(F)cc4c2C1)C1CCCC1)O3 [Example 63, N-{[(3S)-6-Fluoro-2,3,4,9-tetrahydro-1H-carbazol-3-yl]methyl}-N-{[(2S)-8-methyl-2,3-dihydro[1,4]dioxino[2,3-f]quinolin-2-yl]methyl}cyclopentanamine monohydrochloride monohydrate]		389 ± 38.2	113	1350	73		
		17.7		Cc1ccc2c3c(ccc2n1)OC[C@H](CNCC1CCc2sc4ccccc4c2C1)O3 (single isomer, unassigned) [32 diastereomer 2]	6.49	885	47.6				
				Cc1ccc2c3c(ccc2n1)OC[C@H](CN[C@@H]1CCc2c([nH]c4ccccc24)C1)O3 (single isomer, unassigned) [Example 44, dihydrochloride]	620	22.1 ± 2.51		225	74		
				Cc1ccc2c3c(ccc2n1)OC[C@H](CN(C)C[C@H]1CCc2c(c4cc(F)ccc4n2C)C1)O3 [Example 68, {[(3S)-6-Fluoro-9-methyl-2,3,4,9-tetrahydro-1H-carbazol-3-yl]methyl}methyl{[(2S)-8-methyl-2,3-dihydro[1,4]dioxino[2,3-f]quinolin-2-yl]methyl}amine monohydrochloride monohydrate]	3720	15.2 ± 0.74	293		34.8		
			70	Cc1ccc2c3c(ccc2n1)OC[C@H](CNC1CCc2c([nH]c4ccc(F)cc24)C1)O3 (mixture of isomers) [Example 46, 6-Fluoro-N-{[(2S)-8-methyl-2,3-dihydro[1,4]dioxino[2,3-f]quinolin-2-yl]methyl}-2,3,4,9-tetrahydro-1H-carbazol-2-amine]	231	52.5 ± 1.73	8.55	155			
494	100	67.6		Cc1ccc2c3c(ccc2n1)OC[C@H](CNCC1CCc2sc4ccccc4c2C1)O3 (single isomer, unassigned) [32 diastereomers 1]	8.07		> 1000				

Compound	IC50 [3] [nM]	Imax (maximum inhibitory effect) [3] [%]	IC50 (Human 5-HT1A Receptor [2]) [nM]	Emax (Human 5-HT1A Receptor [2]; CHO) [%]	Ki (Human 5-HT1A Receptor [1]) [nM]	IC50 (h-5-HT-T) [nM]	Ki (serotonin transporter) [nM]	EC50 (Human 5-HT1A Receptor [2]) [nM]	Emax (Human 5-HT1A Receptor [2]) [%]	EC50 ([3]; superscript a, potency of stimulatory effect) [nM]	Emax ([3]; superscript c, maximum stimulatory effect) [%]
Cc1ccc2c3c(ccc2n1)OC[C@H](CNCCC1CCc2[nH]c4ccc(F)cc4c2C1)O3 (mixture of isomers) [Example 40, [2-(6-Fluoro-2,3,4,9-tetrahydro-1H-carbazol-3-yl)ethyl]{[(2S)-8-methyl-2,3-dihydro[1,4]dioxino[2,3-f]quinolin-2-yl]methyl}amine dihydrochloride]	75	34			680	1.24 ± 0.16	48.4	4.06	100	7.1	46
